Assay results taken from patent US10105384B2, “Nucleic acids targeting TCTP for use in the treatment of chemo- or hormone-resistant cancers” (INSTITUT NATIONAL DE LA SANTE ET DE LA RECHERCHE MEDICALE …, priority 2010, dated 2018).
Peptide text beside a SMILES is read from it. * marks the point of attachment. Cbz = O=C(OCc1ccccc1)*

Tests used:
Format in all cases: cell-based, human
PC-3 cells = assay: MTT cell growth assay, PC-3 cells; conditions: PC-3 cells, 50 nM docetaxel 24 h, MTT
Protocol: In brief, cells were seeded in each well of 12-well microtiter plates (30 000 to 50 000 cells per well) and allowed to attach overnight. To study the effect of TCTP downregulation on apoptosis induced by docetaxel, PC-3 cells were transiently transfected the day after seeding with 5 nM of TCTP siRNA for 48 h or 100 nM of TCTP ASO for 72 h. Cells were then treated with 50 nM of docetaxel and MTT assays were performed after 24 h. To assess the effect of TCTP downregulation on Hsp27 cytoprotection, LNCaP-Mock and -Hsp27 cells were transiently transfected the day after seeding with 5 nM of TCTP siRNA for 48 h. The down- or upregulation of TCTP effect on LNCaP and C4-2 cell viability was realized after transient transfections with 100 nM of TCTP ASO or 0.02 μg/μl of pDEST-TCTP for 72 h and 48 h respectively. Cells were then treated with 1 nM of docetaxel in serum-free media (mimics androgen withdrawal in vitro) and crystal violet assays were performed the day after. Each assay was performed in triplicate.
To assess the effect of TCTP down-regulation on CR cell growth, PC-3 cells were treated for 1 day with 5 nM TCTP siRNA or for 2 days with 100 nM TCTP ASO. At the end of the treatment, PC-3 cells were incubated with 50 nM of docetaxel. Growth rates of PC-3 cells were examined using the 3-(4,5-dimethylthiazol-2-yl)-2,5-diphenyltetrazolium bromide assay. […] The effect of the inhibition of TCTP on cell survival was analyzed in PC-3 after combined ASO and docetaxel-chemotherapy treatment. After 24 h of treatment with 50 nM of docetaxel, cell viability was determined using a MTT assay. The experiment was repeated in triplicate. *** differs from PC-3 transfected with control-siRNA (P50.001) using Statview software. […] The same effect has been observed with TCTP siRNA (SEQ ID NO: 3) and 5′-[…]-3′ (SEQ ID NO: 14) and 5′-[…]-3′ (SEQ ID NO: 15) ASOs.
PC3 cells were transfected with a TCTP siRNA of SEQ ID NO: 3. Cell proliferation and apoptosis were studied using respectively MTT (3-(4,5-dimethylthiazol-2-yl)-2,5-diphenyl tetrazolium bromure) assay and flow cytometry.
PC3 cells were transfected with a TCTP ASO of SEQ ID NO: 2. Cell proliferation and apoptosis were studied using respectively MTT assay and flow cytometry.

TCTP [1] = assay: ASO sequences screening: TCTP expression by western blot and/or qRT-PCR; conditions: WB and/or qRT-PCR, PC-3 cells overexpressing TCTP
Protocol: (§1) Western Blot analysis was performed as described previously (Rocchi et al., 2004, Cancer Res. 64:6595-602) with 1:5000 rabbit anti-Hsp27 polyclonal antibody (Assay Designs, Villeurbanne, France), 1:2000 rabbit TCTP polyclonal antibody (Abcam Inc., Cambridge, UK), 1:250 rabbit anti-MSL1v1 polyclonal antibody (Abcam Inc.), 1:500 mouse anti-ubiquitin monoclonal antibody (Santa Cruz Biotechnology Inc., Heidelberg, Germany) or 1:1000 rabbit anti-caspase-3 polyclonal antibody (Cell Signalling Technology Inc., Danvers, USA). Loading levels were normalized using 1:5000 rabbit anti-glyceraldehyde-3-phosphate dehydrogenase polyclonal (Abcam Inc.) or 1:2500 mouse anti-vinculine monoclonal antibodies (Sigma Chemical Co., St Louis, Mo., USA).
The quantitative reverse transcription polymerase chain reaction (qRT-PCR) analysis was done on a LightCycler detection system (Roche Applied Science, Meylan, France). Expression levels of 18S subunit of the ribosome gene were used as an internal control. First strand cDNA was synthesized from 1 μg of total RNA using random hexamers and expanded by reverse transcriptase according to the manufacturer's instructions (ImProm-II Reverse Transcription System, Promega, Charbonniéres-les-Bains, France), subsequently diluted 1:10 with water, and stored at −20° C. until use. TCTP and 18S polymerase chain reaction (PCR) products were detected by quantitative real time PCR (qRT-PCR) using the SYBR Premix Ex Taq (Takara Bio Inc, St Germain en Laye, France) following the manufacturer's instructions. Five microliters of diluted cDNA template were mixed with 10 μl SYBR Premix Ex Taq (including Taq polymerase, reaction buffer, MgCl2, SYBR green I dye, and deoxynucleotide triphosphate mix) and 0.4 μM forward and reverse primers, in a final volume of 20 μl. The following primers were used: TCTP forward 5′-[…]-3′ (SEQ ID NO: 8) and TCTP reverse 5′-[…]-3′; (SEQ ID NO: 9); 18S forward 5′-[…]-3′ (SEQ ID NO: 10) and 18S reverse 5′-[…]-3′ (SEQ ID NO: 11). After an initial Taq activation for 10 seconds at 95° C., Light Cycler PCR was done using 55 cycles with the following cycling conditions: 95° C. for 5 seconds, 58° C. for 7 seconds, and 72° C. for 14 seconds. Each sample was analyzed in duplicate and the experiment was repeated three times. Results were analyzed using RealQuant data analysis software (Roche, Neuilly-sur-seine, France). The results analysis was done with the 2(-Delta Delta C(T)) Method (Livak K J. et al., 2001; Methods. 25:402-8).
In order to find a sequence ASO having an inhibiting effect on TCTP expression, 30 ASO sequences have been designed 26 of which are shown in table 1. Said 30 sequences cover the TCTP mRNA (accession number NM_003295). Using BLAST program, the specificity of said sequences has been studied. Among said 30 sequences, only 15 sequences have been identified as being specific for TCPT mRNA sequence (see table 1). The effect of said ASO sequences on TCTP expression was tested by western blot analysis (WB) and/or by quantitative reverse transcription polymerase chain reaction (qRT-PCR) on PC-3 cells overexpressing TCTP. WB and qRT-PCR were performed as exposed in example 1.

TCTP [2] = assay: TCTP half-life / proteasomal degradation in PC-3 cells (western blot); conditions: for TCTP protein levels decrease: PC-3 cells, cycloheximide alone 20 μg/ml
Protocol: Cells were plated at a density of 25,000 (PC-3) and 75 000 (LNCaP and C4-2) by 1.9 cm^2 and treated the day after with indicated siRNA or ASO for 1 or 2 days respectively. Oligofectamine, a cationic lipid (Invitrogen), was used to increase siRNA or ASO uptake into the cells. Cells were treated with indicated siRNA or ASO concentrations after a preincubation for 20 min with […] of oligofectamine in serum free OPTI-MEM (Invitrogen). Four hours later, 1 ml of FCS was added in the medium. […]
To determine whether the ubiquitination of TCTP results in its proteasomal degradation, TCTP half-life was determined after OGX-427 treatment, in the presence or absence of the proteasome inhibitor MG132 and protein synthesis inhibitor cycloheximide after 2 days.

TCTP [3] = assay: TCTP level in LNCaP cells after Hsp27 down-regulation by OGX-427 (western blot, mRNA)
Protocol: as §1
2′-O-(2-rnethoxyethyl) ASO, OGX-427, was obtained from OncoGenex. The sequence of OGX-427 corresponds to the human Hsp27 translation initiation site (5′-GGGACGCGG-CGCTCGGTCAT-3′) (SEQ ID NO: 12). A mismatch ASO (ASO; 5′-[…]-3′) (SEQ ID NO: 13) was used as a control. The TCTP phosphorithioate ASO targeting the human TCTP (5′-[…]-3′) (SEQ ID NO: 2) and the control oligonucleotide (5′-CGTGTAGGTACGGCAGATC-3′) (SEQ ID NO: 4) were purchased from Operon (Eurofin MWG, Courtaboeuf, France) and designated ASO TCTP or ASO scrambled. […]

| Compound | enhancement of docetaxel sensitivity (PC-3 cells) | ability to inhibit TCTP expression (TCTP [1]) | best ability to inhibit specifically TCTP expression (TCTP [1]) | also measured |
| --- | --- | --- | --- | --- |
| 5′-AACTTGTTTCCTGCAGGTGA-3′ (all phosphorothioate, sugars by position and methylation of C not given here) [ASO15] | same effect | strong ability to inhibit TCTP expression | best ability to inhibit specifically TCTP expression |  |
| 5′-TGGTTCATGACAATATCGAC-3′ (all phosphorothioate, sugars by position and methylation of C not given here) [ASO14] | same effect | strong ability to inhibit TCTP expression | best ability to inhibit specifically TCTP expression |  |
| CC(C)C[C@@H](C=O)NC(=O)[C@H](CC(C)C)NC(=O)[C@H](CC(C)C)NC(=O)OCc1ccccc1 [MG132] (Cbz-Leu-Leu-Leu-aldehyde) |  |  |  | TCTP half-life (TCTP [2]; PC-3 cells after OGX-427 treatment, MG132 10 μmol/L): prolonged the half-life of TCTP |
| 5′-GGGACGCGG-CGCTCGGTCAT-3′ (antisense GGGACGCGGCGCTCGGTCAT; 2'-O-(2-methoxyethyl) modified ASO, pattern not given here) [OGX-427, 2′-O-(2-methoxyethyl) ASO from OncoGenex corresponding to the human Hsp27 translation initiation site] |  |  |  | TCTP mRNA expression level (TCTP [3]; LNCaP cells treated by OGX-427): without any change; TCTP protein level lower than OGX-427-control (TCTP [3]; LNCaP cells, western blot): 70% |
| C[C@@H]1C[C@@H]([C@H](O)CC2CC(=O)NC(=O)C2)C(=O)[C@@H](C)C1 [cycloheximide] |  |  |  | TCTP protein levels decrease (TCTP [2]; 24 h): 40%; TCTP protein levels decrease (TCTP [2]; 48 h): 60% |
